{"source": "patent US7582786B2", "about": "“Synthetic catalytic free radical scavengers useful as antioxidants for prevention and therapy of disease” (Eukarion Inc., priority 1996, dated 2009)", "key": {"[1]": {"test": "SOD activity, xanthine/xanthine oxidase with cytochrome C as acceptor (Example 2)", "assay_type": "biochemical", "conditions": "for SOD: relative to C7 (C7 = 100)", "outline": "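Superoxide was generated by 120 µM xanthine and 0.2 U/ml xanthine oxidase in 50 mM sodium phosphate pH 7.8 at 27 °C, with salen manganese compounds at ≥4 concentrations in duplicate.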"}, "brain homogenates": {"test_system": "brain homogenates", "test": "Iron-induced lipid peroxidation in brain homogenates (MDA)", "assay_type": "biochemical, rat", "experimental": "Lipid peroxidation was induced by incubating a mixture consisting of 0.25 ml homogenate, 0.25 ml ASCF with test compounds, and 10 μM FeCl2 for 1 hr at 35° C. under an atmosphere equilibrated with O2:CO2(95:5). Following the incubation, 0.1 ml of the sample was extracted with trichloroacetic acid and analyzed for thiobarbituric acid reactive material as described previously, using authentic malonyldialdehyde (MDA) as a standard."}, "[2]": {"test_system": "Human dermal fibroblasts (HF cells)", "test": "Cell protection assay, tert-butylhydroperoxide (t-BHP) toxicity, XTT", "assay_type": "cell-based", "experimental": "Human dermal fibroblasts (HF cells) were obtained from the American type tissue Culture Collection at passage 1 and cultured and propagated in a medium (HF medium) consisting of Dulbecco's Modified Eagle's Medium with 4.5 g/l D-glucose, 10% calf serum 4 mM glutamine, 50 units/ml penicillin, and 50 μg/ml streptomycin in a 37° C. humidified incubator equilibrated with 5% CO2. Cells were used at passages 5 or 6 for experiments. For cell protection assays, HF cells were seeded at a density of about 15,000 cells per cm2 onto 96-well culture plates and allowed to grow to confluence. To assess protection tert-butylhydroperoxide (t-BHP) toxicity, confluent cell layers were first treated with the indicated concentrations of test compounds dissolved in HF medium for 18 hr. The medium was then replaced with fresh medium containing test compounds and 0.5 mM tert-butylhydroperoxide (t-BHP) and cells were incubated for another 18 hr. The medium was then removed and replaced with fresh HF medium (100 μl per well) without test compounds or t-BHP. Fifty μl of XTT reagent (Boeringer Mannheim, Inc.), prepared as described by the manufacturer, was then added to each well and the plates returned to the incubator. After 2 hr., the absorbance at 490 nm was measured in a BioRad (Richmond, Calif.) Model 3550 plate-reader, using a reference wavelength of 655 nm. Control cells that had not been exposed to test compounds or toxic agents were included among the samples treated with XTT reagent. Absorbance measurements for blank wells, containing HF medium and XTT reagent but no cells, were also determined. To analyze protection from glucose/glucose oxidase toxicity, confluent cell layers were incubated with HF medium containing glucose oxidase (0.019 units/ml) along with test compounds, as indicated, for 18 hr in the tissue culture incubator. Fresh HF medium was then added and cell viability assessed using the XTT reagent as described above. For both these models, concentrations of toxic agents were selected that were reproducibly completely lethal. Cytotoxicity assessments were routinely confirmed by visual inspection of the cell layers prior to addition of the XTT reagent."}, "[3]": {"test": "Peroxidase activity with t-BHP as substrate, ABTS oxidation", "assay_type": "biochemical", "experimental": "Peroxidase activity was assayed by monitoring the hydrogen peroxide-dependent oxidation of 2,2′-azino-bis(3-ethylbenzthiazoline-6) sulfonic acid (ABTS) spectrophotometrically. Standard assay mixtures consisted of 50 mM sodium phosphate, pH 8.1, 0.9% sodium chloride, 0.5 mM ABTS, and H2O2 and salen manganese complex as indicated. Where indicated, 50 mM sodium phosphate buffers of pH 6.0 or pH 7.1 were substituted. Assays were conducted at 27±0.2° C. ABTS oxidation was monitored at 740 or 500 nm to eliminate interference by the salen manganese complexes, many of which absorb in the vicinity of the λmax of oxidized ABTS, and to avoid absorbance values that exceeded the linear range of the spectrophotometer. The amount of oxidized ABTS was estimated using an Δε740 of 20,300 M^−1cm^−1 or an Δε500 of 3400 M^−1cm^−1 calculated based upon the published molar extinction coefficient oat 405 nm (36,800).\n(In comparison, horseradish peroxidase utilized t-BHP with an ABTS oxidation rate that was about 5.4% of the rate with H2O2)."}}}
{"smiles": "[Cl][Mn]1[O]c2ccccc2C=NCCN=Cc2ccccc2[O]1", "note": "[Compound C7]", "values": [{"measurement": "SOD activity (in words)", "setting": "[1]", "result": "catalytic SOD activity"}, {"measurement": "SOD", "setting": "[1]", "result": 100}, {"measurement": "MDA levels, percent of control", "setting": "brain homogenates; 1 μM", "result": 110, "unit": "%"}, {"measurement": "MDA levels, percent of control", "setting": "brain homogenates; 5 μM", "result": 84, "unit": "%"}, {"measurement": "MDA levels, percent of control", "setting": "brain homogenates; 10 μM", "result": 22, "unit": "%"}, {"measurement": "MDA levels, percent of control", "setting": "brain homogenates; 25 μM", "result": 4, "unit": "%"}, {"measurement": "Cell viability, absorbance at 490 nm uncorrected for blank", "setting": "[2]; 2.5 μM, t-BHP 0.5 mM", "result": "0.28 ± 0.01"}, {"measurement": "Cell viability, absorbance at 490 nm uncorrected for blank", "setting": "[2]; 5 μM, t-BHP 0.5 mM", "result": "0.68 ± 0.31"}, {"measurement": "Cell viability, absorbance at 490 nm uncorrected for blank", "setting": "[2]; 10 μM, t-BHP 0.5 mM", "result": "1.45 ± 0.05"}, {"measurement": "Cell viability, absorbance at 490 nm uncorrected for blank", "setting": "[2]; 20 μM, t-BHP 0.5 mM", "result": "1.44 ± 0.05"}, {"measurement": "Cell viability, absorbance at 490 nm uncorrected for blank", "setting": "[2]; 40 μM, t-BHP 0.5 mM", "result": "1.42 ± 0.03"}, {"measurement": "synergistic toxicity with t-BHP", "setting": "[2]; 80 μM", "result": "possible synergistic toxicity"}, {"measurement": "Cell viability, absorbance at 490 nm uncorrected for blank", "setting": "[2]; 80 μM, t-BHP 0.5 mM", "result": "0.77 ± 0.41"}, {"measurement": "ABTS oxidation rate with t-BHP, percent of rate with H2O2", "setting": "[3]; 1 mM t-BHP", "result": "about 0.5%"}]}
{"smiles": "COc1cccc2c1[O][Mn]([O]C(C)=O)[O]c1c(cccc1OC)C=NCCN=C2", "note": "[Compound C32]", "values": [{"measurement": "SOD", "setting": "[1]", "result": 96}, {"measurement": "MDA levels, percent of control", "setting": "brain homogenates; 1 μM", "result": 104, "unit": "%"}, {"measurement": "MDA levels, percent of control", "setting": "brain homogenates; 5 μM", "result": 35, "unit": "%"}, {"measurement": "MDA levels, percent of control", "setting": "brain homogenates; 10 μM", "result": 13, "unit": "%"}, {"measurement": "MDA levels, percent of control", "setting": "brain homogenates; 25 μM", "result": 8, "unit": "%"}, {"measurement": "Cell viability, absorbance at 490 nm uncorrected for blank", "setting": "[2]; 2.5 μM, t-BHP 0.5 mM", "result": "0.29 ± 0.01"}, {"measurement": "Cell viability, absorbance at 490 nm uncorrected for blank", "setting": "[2]; 5 μM, t-BHP 0.5 mM", "result": "0.28 ± 0.01"}, {"measurement": "Cell viability, absorbance at 490 nm uncorrected for blank", "setting": "[2]; 10 μM, t-BHP 0.5 mM", "result": "1.35 ± 0.05"}, {"measurement": "Cell viability, absorbance at 490 nm uncorrected for blank", "setting": "[2]; 20 μM, t-BHP 0.5 mM", "result": "1.43 ± 0.05"}, {"measurement": "Cell viability, absorbance at 490 nm uncorrected for blank", "setting": "[2]; 40 μM, t-BHP 0.5 mM", "result": "1.48 ± 0.06"}, {"measurement": "Cell viability, absorbance at 490 nm uncorrected for blank", "setting": "[2]; 80 μM, t-BHP 0.5 mM", "result": "1.40 ± 0.07"}, {"measurement": "peroxidase rate with t-BHP relative to C7", "setting": "[3]", "result": "~3", "unit": "fold"}]}
{"smiles": "COc1cc(OC)c2c(c1)[O][Mn]([O]C(C)=O)[O]c1cc(OC)cc(OC)c1C=NCCN=C2", "note": "[Compound C35]", "values": [{"measurement": "SOD", "setting": "[1]", "result": 27}, {"measurement": "inhibition of lipid peroxidation (in words)", "setting": "brain homogenates", "result": "very potent"}, {"measurement": "MDA levels, percent of control", "setting": "brain homogenates; 1 μM", "result": 82, "unit": "%"}, {"measurement": "MDA levels, percent of control", "setting": "brain homogenates; 5 μM", "result": 5, "unit": "%"}, {"measurement": "MDA levels, percent of control", "setting": "brain homogenates; 10 μM", "result": 4, "unit": "%"}, {"measurement": "MDA levels, percent of control", "setting": "brain homogenates; 25 μM", "result": 3, "unit": "%"}, {"measurement": "Cell viability, absorbance at 490 nm uncorrected for blank", "setting": "[2]; 2.5 μM, t-BHP 0.5 mM", "result": "0.27 ± 0.01"}, {"measurement": "Cell viability, absorbance at 490 nm uncorrected for blank", "setting": "[2]; 5 μM, t-BHP 0.5 mM", "result": "0.27 ± 0.01"}, {"measurement": "Cell viability, absorbance at 490 nm uncorrected for blank", "setting": "[2]; 10 μM, t-BHP 0.5 mM", "result": "0.29 ± 0.03"}, {"measurement": "Cell viability, absorbance at 490 nm uncorrected for blank", "setting": "[2]; 20 μM, t-BHP 0.5 mM", "result": "1.40 ± 0.05"}, {"measurement": "Cell viability, absorbance at 490 nm uncorrected for blank", "setting": "[2]; 40 μM, t-BHP 0.5 mM", "result": "1.52 ± 0.07"}, {"measurement": "toxicity of compound alone", "setting": "[2]; 80 μM, without t-BHP", "result": "equivalent toxicity with or without t-BHP"}, {"measurement": "Cell viability, absorbance at 490 nm uncorrected for blank", "setting": "[2]; 80 μM, t-BHP 0.5 mM", "result": "0.57 ± 0.01"}, {"measurement": "concentration at which protection was observed", "setting": "[2]; t-BHP 0.5 mM", "result": "≥ 20", "unit": "µM"}, {"measurement": "peroxidase activity toward t-BHP, percent of C7", "setting": "[3]", "result": "less than 2%"}]}
{"smiles": "COc1cccc2c1[O][Mn]([Cl])[O]c1c(cccc1OC)C=NCCN=C2", "note": "[Compound C40]", "values": [{"measurement": "SOD", "setting": "[1]", "result": 96}]}
